Data from patent US20250326708A1, “LONG-ACTING SPLEEN-TARGETING CATIONIC LIPID COMPOUND COMPRISING BENZENE RING STRUCTURE, COMPOSITION COMPRISING SAME, AND USE THEREOF” (Beijing Youcarekechuang Pharmaceutical Technology Co., Ltd., priority 2024, published 2025).
Where “and” joins values, the source holds several entries; their conditions need not be identical. Equal values may be shown once.

Tests used:
[1] = Particle size and polydispersity index (PDI) of lipid nanoparticles, dynamic light scattering; format: physicochemical; settings: LNP preparation with the named cationic lipid; 90° scattering angle, 25° C
Source text: (§1) The cationic lipids listed in Table 2 were each mixed with DSPC (AVT (Shanghai) Pharmaceutical Technology Co., Ltd.), cholesterol (AVT (Shanghai) Pharmaceutical Technology Co., Ltd.), and DMG-PEG2000 in a molar ratio of 49:10:39.5:1.5 and dissolved in ethanol to prepare ethanol lipid solutions. Using the ethanol injection method, the ethanol lipid solutions were quickly added to a citrate buffer (pH between 4 and 5), and vortexed for 30 seconds for later use. eGFP-mRNA (purchased from Shanghai BioHub Biotechnology Co., Ltd.), Fluc-mRNA (purchased from Shanghai BioHub Biotechnology Co., Ltd.), or Cy5 fluorescently labeled Leqvio (purchased from Sangon Biotech (Shanghai) Co., Ltd.) was diluted in a citrate buffer (pH between 4 and 5) to obtain an mRNA aqueous solution. A certain volume of the lipid solution and the mRNA aqueous solution were mixed to prepare liposomes at a total lipid-to-mRNA weight ratio of 15:1. The mixtures were sonicated at 25° C. for 15 minutes (ultrasonic frequency: 40 kHz, ultrasonic power: 800 W). The resulting liposomes were diluted 10-fold with PBS, followed by ultrafiltration using a 300 kDa ultrafiltration tube to remove ethanol. After adjusting the volume with PBS, LNP preparations encapsulating eGFP-mRNA or Fluc-mRNA were obtained, using cationic lipids, DSPC, cholesterol, and DMG-PEG2000 at a molar ratio of 49:10:39.5:1.5.
The particle size and polydispersity index (PDI) were measured using dynamic light scattering with a Malvern laser diffraction particle size analyzer.
10 μL of liposome solution was diluted to 1 mL with RNase-free deionized water and added to the sample cell. Each sample was measured three times. The measurement conditions were as follows: 90° scattering angle, 25° C.

[2] = tested on: 293T cells; assay: Fluorescence detection of Fluc-mRNA (transfection efficiency) of LNP preparations; format: cell-based; settings: Fluc-mRNA LNP
Description: (§2) Cell recovery and passage: 293T cells were recovered and cultured in culture dishes. The cells were passaged until the required number of cells was obtained.
(§3) Seeding plates: The cells in culture dishes were digested and counted, then seeded in a 96-well plate at 10,000 cells per well and seeded in a 12-well plate at 150,000 cells per well. The cells were cultured overnight until cell adhesion.
as §1
(§4) Cell recovery and passage: The method was the same as described in Example 3.
(§5) Seeding plates: The method was the same as described in Example 3.
LNP preparations containing 0.3 μg of Fluc-mRNA (with the vector components of the LNP preparations of cationic lipids, DSPC, cholesterol, and DMG-PEG2000 in a molar ratio of 49:10:39.5:1.5, where the cationic lipids are those listed in Table 1) were added to the cell culture medium in a 96-well plate. After 24 hours of continued culture, the corresponding reagents were added according to the instructions in the Gaussia Luciferase Assay Kit. Fluorescence intensity in each well was detected using the IVIS fluorescence detection system. The transfection efficiency of LNP preparations prepared with a series of cationic lipid compounds designed in the present disclosure, as well as cationic lipids from the prior art, including SM-102, HHMA, MC3, compound 7, and I-1, is shown in Table 4.

[3] = tested on: 293T cells; assay: Cell viability assay (CCK-8) with LNP preparations of Fluc-mRNA; format: cell-based
Description: as §2, §3, §1, §4, §5
LNP preparations containing 1.5 μg of Fluc-mRNA (with the vector components of the LNP preparations of cationic lipids, DSPC, cholesterol, and DMG-PEG2000 in a molar ratio of 49:10:39.5:1.5, where the cationic lipids are those listed in Table 1) were added to the cell culture medium in a 96-well plate. After 24 hours of continued culture, 10 μL of CCK-8 solution was added to each well, and the culture plate was incubated in an incubator for 1 hour.

[4] = tested on: female BALB/C mice; assay: Expression of delivered mRNA in mice in vivo (IVIS in vivo imaging); settings: 10 μg Fluc-mRNA via tail vein
Description: LNP preparations containing 10 μg of Fluc-mRNA were injected via the tail vein into female BALB/C mice (4 to 6 weeks old, weighing 17 to 19 g). At specified time points after administration (6 h, 24 h, 48 h, and 7 d), the mice were intraperitoneally injected with fluorescent imaging substrates and allowed to move freely for 5 minutes. The average radiation intensity (corresponding to fluorescence intensity) of proteins expressed by the mRNA delivered by the LNP preparations in the mice in vivo was then detected using the IVIS Spectrum small-animal in vivo imaging system.

[5] = tested on: female BALB/C mice; assay: Expression of delivered mRNA in different organs of mice (organ imaging); format: in vivo
Description: LNP preparations containing 5 μg of Fluc-mRNA were subcutaneously injected into female BALB/C mice (4 to 6 weeks old, weighing 17 to 19 g). At specified time points after administration (6 h), the mice were intraperitoneally injected with fluorescent imaging substrates and allowed to move freely for 5 minutes. The average radiation intensity (corresponding to fluorescence intensity) of proteins expressed by the mRNA delivered by the LNP preparations in the mice in vivo was then detected using the IVIS Spectrum small-animal in vivo imaging system. After sampling, the mice were killed by cervical dislocation and dissected, and the internal organs: heart, liver, spleen, lung, kidney, and lymph of mice were accurately isolated. The average radiation intensity (corresponding to fluorescence intensity) of proteins expressed by the mRNA delivered by the LNP preparations in various organs of mice was then detected using the IVIS Spectrum small-animal in vivo imaging system.

[6] = 6 hours after 5 μg Fluc-mRNA subcutaneously

CCCCCCCCCCC(CCCCCCCC)COC(=O)CCCCCNC(CO)(CO)CCc1ccc(CCCCCCCC)cc1 (centres unmarked) [YK-912, 2-octyldodecyl 6-((1-hydroxy-2-(hydroxymethyl)-4-(4-octylphenyl)butan-2-yl)amino) hexanoate]
PDI [1]: 9.5% | Particle size [1]: 123 nm | Cellular transfection efficiency, times that of HHMA ([2]; vs HHMA): 5.65 times | Cellular transfection efficiency, times that of I-1 ([2]; vs I-1): 28.16 times | Cellular transfection efficiency, times that of Lipofectamine 3000 ([2]; vs Lipofectamine 3000): 6.77 times | Cellular transfection efficiency, times that of MC3 ([2]; vs MC3): 60.16 times | Cellular transfection efficiency, times that of SM-102 ([2]; vs SM-102): 4.00 times | Cellular transfection efficiency, times that of YK-501 ([2]; vs YK-501): 123.46 times | Cellular transfection efficiency, times that of YK-506 ([2]; vs YK-506): 8.73 times | Cellular transfection efficiency, times that of YK-901 ([2]; vs YK-901): 131 times and 131.47 times | Cellular transfection efficiency, times that of YK-902 ([2]; vs YK-902): 18.35 times | Cellular transfection efficiency, times that of YK-903 ([2]; vs YK-903): 228 times and 228.30 times | Cellular transfection efficiency, times that of YK-904 ([2]; vs YK-904): 45.65 times | Cellular transfection efficiency, times that of YK-905 ([2]; vs YK-905): 78.83 times | Cellular transfection efficiency, times that of YK-911 ([2]; vs YK-911): 4.39 times | Cellular transfection efficiency, times that of compound 7 ([2]; vs compound 7): 22.17 times | Cell viability ([3]; LNP with 1.5 μg Fluc-mRNA, 24 hours, CCK-8): 87% | Cell viability higher than that of YK-901 ([3]; difference vs YK-901): 29% | Cell viability higher than that of YK-902 ([3]; difference vs YK-902): 51% | Cell viability higher than that of YK-903 ([3]; difference vs YK-903): 40% | Cell viability higher than that of YK-904 ([3]; difference vs YK-904): 35% | Cell viability higher than that of YK-905 ([3]; difference vs YK-905): 36% | Cell viability higher than that of YK-911 ([3]; difference vs YK-911): 25% | Average radiation intensity, in vivo imaging ([4]; 6 h): 7543664 | Average radiation intensity, in vivo imaging ([4]; 24 h): 932533 | Average radiation intensity, in vivo imaging ([4]; 48 h): 354363 | Average radiation intensity, in vivo imaging ([4]; 7 d): 56756 | Average radiation intensity of mouse organs: Heart [5, 6]: 0 | Average radiation intensity of mouse organs: Kidney [5, 6]: 0 | Average radiation intensity of mouse organs: Lung [5, 6]: 0 | Average radiation intensity of mouse organs: Lymph [5, 6]: 0 | Average radiation intensity of mouse organs: Spleen [5, 6]: 175366 | Expression level of mRNA in the spleen, times that of SM-102 ([5]; spleen, 6 h, vs SM-102): 6.86 times | Expression level of mRNA in the spleen, times that of YK-501 ([5]; spleen, 6 h, vs YK-501): 12.33 times | Expression level of mRNA in the spleen, times that of YK-506 ([5]; spleen, 6 h, vs YK-506): 2.46 times
